≈ marks a conversion by molar mass, not a printed value. Where two headings read alike, the source gives them in different places.
How the values were obtained:
coccidia = conditions: fowl; cited from earlier work
[1] = pig; cited from earlier work
[2] = hen; cited from earlier work
M. hyopneumoniae = test: MIC, microtitre broth, ten field isolates and type strain J of M. hyopneumoniae; type: cell-based, Mycoplasma hyopneumoniae
Text: Tissue samples are obtained from the lungs of pigs from various enzootic pneumonia of pigs (EPP)-affected herds. Samples are shipped on dry ice for culture. M. hyopneumoniae is recovered from freshly sectioned lung tissue by direct culture onto Mycoplasma Experience agar. This technique allows the distinctive colonies of M. hyopneumoniae to be recognised and readily separated, by cloning from other faster growing mycoplasma species such as Mycoplasma hyorhinis, often present in EPP lung samples. Isolates are subcultured and identified by disc growth inhibition using specific rabbit antiserum raised to M. hyopneumoniae NCTC 10110.
Cultures for antibiotic challenge are prepared in Mycoplasma Experience broth, incubated aerobically at 36° C.
A commercially available solid medium (Mycoplasma Experience Ltd.) is used to isolate M. hyopneumoniae from lung tissue. A liquid medium (Mycoplasma Experience Ltd.) containing phenol red and glucose (pH 7.6) is used for the MIC assays.
(§1) Stock solutions of test compound are prepared at 1 mg/ml concentration in deionised water, sterilised by filtration through 0.2μ pore size membrane filters (Sartorius Minisart, N) and stored at -20° C. For use in the MIC tests the stock solutions are diluted in liquid medium to double the final concentrations required. MIC tests are carried out according to the method of Tanner & Wu, Avian Diseases 36 (1992) 714-717. Actively growing challenge cultures are prepared either from 1 ml aliquots of broth cultures stored at -70° C. or from cultures stored on agar at -70° C. The challenge cultures are diluted to give a target titre of 10^3 to 10^5 colour changing units/ml. 0.1 ml aliquots of challenge inocula are mixed with 0.1 ml aliquots of antibiotic dilution in microtitre wells. Each microtitre plate contains uninoculated media at pH 6.8 (M. hyopneumoniae) (end point control) and antibiotic-free inoculated challenge controls. All plates are sealed with adhesive film and incubated aerobically at 36° C. MICs are recorded when the colour change in the challenge control wells match the pH of the end point control. The MIC is the lowest concentration showing no colour change.

Mycoplasma hyosynoviae = test: MIC assay, 7 field isolates of Mycoplasma hyosynoviae; type: cell-based; conditions: Mycoplasma; 7 field isolates
Description: Tissue samples are obtained from the lungs of pigs from various enzootic pneumonia of pigs (EPP)--affected herds. Samples are shipped on dry ice for culture. Four isolates from lung samples initially isolated for recovery of Mycoplasma hyopneumoniae were reisolated for Mycoplasma hyosynoviae after it had been noted from the lung samples submitted (re-stored at -70° C.), during culture for M. hyopneumoniae, that some samples yielded luxuriant growth of colonies having the typical morphology of Mycoplasma hyosynoviae. Three further isolates were recovered from other lung samples provided. All isolates were serologically identified by disc growth inhibition with specific rabbit antiserum raised against Mycoplasma hyosynoviae. A commerically available solid medium (Mycoplasma Experience Ltd.) is used to isolate M. hyosynoviae from lung tissue. A liquid medium (Mycoplasma Experience Ltd.) containing phenol red and arginine (pH 7.0) is used for the MIC assay.
as §1, with “and” for “&”, “7.6” for “6.8 (M. hyopneumoniae)”, “matches” for “match”

[3] = Mesomycoplasma hyopneumoniae, field strains (n = 10)

Compound	dosage showing activity against coccidia (coccidia)	dosage showing growth-promoting activity [1]	dosage showing growth-promoting activity [2]	MIC (M. hyopneumoniae; Mesomycoplasma hyopneumoniae, NCTC10110, Type Strain J (NCTC 10110), read-out: MIC) [µg/mL]	MIC50 (M. hyopneumoniae; [3]) [µg/mL]	MIC90 (M. hyopneumoniae; [3]) [µg/mL]	MIC (M. hyopneumoniae; Mesomycoplasma hyopneumoniae, field strains (n = 10), read-out: MIC range) [µg/mL]	susceptibility of field isolates (M. hyopneumoniae; field isolates)	MIC (Mycoplasma hyosynoviae) [µg/mL]
C=C[C@]1(C)C[C@@H](OC(=O)CSC(C)(C)CNC(=O)[C@H](N)C(C)C)[C@]2(C)[C@H](C)CC[C@]3(CCC(=O)[C@H]32)[C@@H](C)[C@@H]1O [compound of formula I, 14-O-[1-[(R)-2-amino-3-methylbutyrylamino]-2-methylpropan-2-ylthioacetyl]mutilin]	20-150 mg/kg of feed	10-50 mg/kg of feed	10-50 mg/kg of feed						
CCN1CCN(c2cc3c(cc2F)c(=O)c(C(=O)O)cn3C2CC2)CC1 [enrofloxacin]				0.025 (≈ 0.0696 µM)	0.005 (≈ 0.0139 µM)	0.01 (≈ 0.0278 µM)	0.0025 to 0.025 (≈ 0.00696 to 0.0696 µM)	very good sensitivity	0.025 to 0.25 (≈ 0.0696 to 0.696 µM)
